These results are taken from paper PMC3855985, “Simultaneous Determination of Volatile Constituents from Acorus tatarinowii Schott in Rat Plasma by Gas Chromatography-Mass Spectrometry with Selective Ion Monitoring and Application in Pharmacokinetic Study” (Journal of Analytical Methods in Chemistry, 2013).

Broadly, the AUC(0-inf) is the area under the concentration-time curve extrapolated to infinity. Read a low AUC(0-inf) as low exposure. For orientation: AUC(0-t) means exposure summed from dosing to a finite time, without extrapolation to infinity. Broadly, the Cmax is the peak of the concentration-time curve. A word on the Tmax: it is the time from dosing to the highest level. In general, half-life refers to how long it takes for the measured level to halve. Read a high half-life as slow loss.

The data set is described as follows: Pharmacokinetic study in rats after single oral dose of volatile oil of Acorus tatarinowii Schott (GC-MS/SIM of plasma). The following applies: for CL / Vd / AUC(0~t) / AUC(0~∞) / C max / T1/2 α / T 1/2β / T max: rats (n = 6); for CL / Vd / Compartment model of the plasma profile / AUC(0~t) / AUC(0~∞) / C max / T1/2 α / T 1/2β / T max: single oral dose 0.2 g/kg volatile oil of Acorus tatarinowii Schott; for Compartment model of the plasma profile: rats. How it is done:
GC-MS analyses were performed with a Shimadzu GC-MS QP2010 (Kyoto, Japan). Chromatographic separation was achieved on a Restek Rxi-5MS capillary column (30 m × 0.32 mm I.D., 0.25 μm film thickness, Shimadzu, Japan) using nitrogen as carrier gas at 2 mL/min in a constant flow rate mode. […] The temperatures of injector, interface, and ion source were 250, 280, and 230°C, respectively. Detection was operated by selected ionmonitoring (SIM) mode (70 eV, electron impact mode).
In the SIM mode, the peaks of α-asarone, β-asarone, methyl eugenol, and IS in plasma were identified by matching the retention time and the abundant ions of m/z 178 for methyl eugenol, m/z 208 for α-asarone, β-asarone, and m/z 144 for IS. The injection volume was 1.0 μL. Data were collected using the GC-MS solution (Kyoto, Japan).
Six healthy male Sprague-Dawley rats, weighing 250–280 g, were supplied by the Guangdong Laboratory Animals Monitoring Institute (Guangdong, China). The rats were housed in a standard animal holding room with normal access to food and water and 12 h light cycle. The animals were fasted overnight prior to dosing, with water allowance ad libitum. All animal experiments were carried out according to the Guidelines for the Care and Use of Laboratory Animals and were approved by the Animal Experimentation Ethics Committee.
In a 1.5 mL Eppendorf tube, 100 μL of plasma was spiked with 10 μL of 2.0 μg/mL IS solution. An aliquot of 40 μL 10% (V : V) trichloracetic acid water solution and 600 μL acetonitrile was used to remove the proteins in the plasma through vortexed for 2 min followed by the centrifugation of 10 min at 8000 rpm. The supernatant was collected in a clean tube for next use, while the residue was extracted by 300 μL acetic ether for three times. The acetic ether layer and the above supernatant were collected together and evaporated to dryness under a stream of nitrogen. The residue was dissolved in 100 μL of acetone for further GC-MS analysis.
Volatile oil of Acorus tatarinowii Schott was administered orally to the rat in a single dose of 0.2 g/kg. Blood samples were collected in heparinized tube at 0, 5, 10, 20, 30, 60, 90, 120, 180, 300, 480, 720, 960, and 1200 min after dose. All the samples were extracted and analyzed under the proposed condition.
The Microsoft Excel Program Drug and Statistics 2.0 (T.C.M. Shanghai, China) was employed to process and calculate the pharmacokinetic parameters. The parameters of the area under curve (AUC), the maximum plasma concentration (C max) and the corresponding time (t max), the half-life of absorption (t 1/2), and so forth were used to decrypt the pharmacokinetic properties of α-asarone, β-asarone, and methyl eugenol. Statistical analysis of the biological data was performed by the Student's t-test. All results were expressed as arithmetic mean ± standard deviation (SD).

Where [1] appears, read: male, Sprague-Dawley, rat, plasma, po, 0.2 g/kg.

Take `C=CCc1ccc(OC)c(OC)c1` [Methyl Eugenol, Methyl eugenol]: the “Compartment model of the plasma profile” value was “one-compartment open models”. Moreover, under setting [1], the AUC(0-inf) is 41.5 ng·h/mL, the AUC(0-t) is 35.5 ng·h/mL, the Cmax was 21 ± 1 ng/mL and the Tmax was 10 min. This compound yielded a half-life under setting [1] of 67.7 ± 3.32 min. For the setting “plasma”, this compound displayed a CL of 0.40 ± 0.04 mL/min/kg and a Vd of 39.35 ± 4.08 L/kg.
Consider `C/C=C/c1cc(OC)c(OC)cc1OC` [α-Asarone], for which the “Compartment model of the plasma profile” value is recorded as “two-compartment open model”. Moreover, under “plasma”, the “AUC(0~t)” value was 47.51 ± 28.49 mg·min/L, the “AUC(0~∞)” value is 56.67 ± 35.91 mg·min/L, the C max came out at 0.53 ± 0.24 µg/mL and the CL worked out at 0.60 ± 0.44 mL/min/kg. For the same compound, for the setting “plasma”, the “T1/2 α” value came to 58.92 ± 20.80 min, the “T 1/2β” value was 69.28 ± 6.12 min, the T max came to 11.25 ± 6.29 min and the Vd was 22.93 ± 16.11 L/kg.
For the compound `C/C=C\c1cc(OC)c(OC)cc1OC` [β-Asarone, β-asarone], the “Compartment model of the plasma profile” value is reported as “two-compartment open model”. In addition, for the setting “plasma”, the “AUC(0~t)” value came out at 368.43 ± 40.05 mg·min/L, the “AUC(0~∞)” value worked out at 407.52 ± 55.78 mg·min/L, the C max came out at 2.47 ± 0.58 µg/mL and the CL is recorded as 0.38 ± 0.05 mL/min/kg. Also, under “plasma”, the “T1/2 α” value came to 54.39 ± 29.46 min, the “T 1/2β” value stood at 69.30 ± 0.21 min, the T max was 13.75 ± 11.09 min and the Vd amounted to 149.87 ± 90.78 L/kg.
